In patent EP0454060B1, “3-(Mercaptoalkyl)-quinazoline-2,4(1H,3H)-diones, processes for their preparation, and pharmaceutical compositions” (priority 1990, dated 1991):

Columns and labels:
Adeno-Virus Typ 4 = test: Antiviral test in vitro; assay type: cell-based
Influenza A/WSN = test: Plaque reduction test on primary HEZ; conditions: mean of two experiments
[1] = tested on: Vesicular-stomatitis Indiana; test: One-step replication cycle on chick embryo cells; assay type: cell-based; conditions: Beispielreihe 2, HEZ
[2] = tested on: Vesicular-stomatitis Indiana; test: Plaque reduction test on primary HEZ; assay type: cell-based
[3] = tested on: Kontaktüberempfindlichkeit vom verzögerten Typ (Effektor-T-Lymphozyten-Aktivität); test: Percutaneous test for contact hypersensitivity after DNFB immunisation; assay type: in vivo, Meerschweinchen (Albino-Koloniezucht); conditions: Sensibilisierungsgrad versus control group; 2 mg/kg daily peroral, day +1 to +6; screening values; from 120 stimulatory, below 80 suppressive
Description: Der Nachweis einer immunregulatorischen Wirksamkeit wurde am Meerschweinchen (Albino-Koloniezucht) und u. a. mit Hilfe folgender Techniken geführt: • Perkutaner Test zum Nachweis einer Kontaktüberempfindlichkeit vom verzögerten Typ (Effektor-T-Lymphozyten-Aktivität), • Takatsy-Test zum Nachweis DNP-spezifischer Serumantikörper (humorale Immunantwort).
Der Nachweis der antiviralen Wirksamkeit erfolgte in vitro an Hühnerembryonalzellen mit Vertretern verschiedener Virusgruppen. 1. Untersuchungen zur immunregulatorischen Wirksamkeit 1.1 Perkutaner Test zum Nachweis einer Kontaktüberempfindlichkeit Die epikutane Applikation von Dinitrofluorbenzol (DNFB) führt beim Meerschweinchen und bei der Maus zur Entwicklung einer verzögerten Überempfindlichkeit, eines Immunstatus, der an die klonale Vermehrung TNP-spezifischer T-Lymphozyten (TDTH-Ly) gebunden ist. Erfolgt nach einer Latenzperiode von mindestens 5 Tagen eine erneute DNFB-Applikation, kommt es zu einer Freisetzung von Lymphokinen durch Reaktion mit den TDTH-Ly dieses Hautbereiches und dadurch zu einer lokal begrenzten Entzündungsreaktion. Sieben Tage nach der Immunisierung mit 1 %igem DNFB wurden die Flanken der Versuchstiere enthaart und durch Aufbringen je eines Tropfens 0,5 %, 0,1 %, 0,05 %, 0,025 % und 0,01 %iger DNFB-Lösung getestet. Die noch positive Konzentration ist dem Grad der Sensibilisierung umgekehrt proportional. Die Testergebnisse ergeben sich aus Stärke und Anzahl der positiven Hautreaktionen, der Stimulierungsindex (SI) aus dem Vergleich der Test- und Kontrolltiere. Die Substanzbehandlung erfolgte peroral. Mittels Schlundsonde wurde eine tägliche Dosis von 2 mg/kg Körpermasse als Suspension in Wasser gegeben. Behandlungsdauer: 1 Tag + 1 (ein Tag nach der Immunisierung) bis +6. Die Kontrolltiere erhielten nur die eingesetzte Lactose. 1.2 Takatsy-Test Nach Immunisierung mit Dinitrofluorbenzol (DNFB) kommt es beim Meerschweinchen auch zur Bildung DNP-spezifischer humoraler Antikörper, die bevorzugt der IgG1-Substanzklasse angehören. 14 Tage nach primärer epikutaner Applikation von DNFB wurde den Versuchstieren Blut durch Herzpunktion entnommen. Die Bestimmung der Antikörperkonzentration erfolgte nach einer von Takatsy beschriebenen Methode (Takatsy, G.: A new method for the preparation of serial dilutions in a quick and accurate way. Kiserletes Orvostudomany 2 (1950) 263 - 396). Als Indikatorzellen wurden TNP-beladene Schaferythrozyten verwendet (Kopplung nach Rittenberg und Pratt; Rittenberg, M. B. and Pratt, K. L.: Antitrinitrophenyl (TNP) plaque assay. Primary response of BALB/c mice to soluble and particulate immunogen. Proc. Soc. exp. Biol. Med., 132 (1969) 575 - 579). 1.3 Ergebnisse Sensibilisierungsgrad (%) und Serumantikörperkonzentration (AK-Titer-Differenz) gegenüber der jeweiligen Kontrollgruppe (Screening-Werte)
Aus den Werten wird deutlich, daß die Verbindungen der allgemeinen Formel I einen gut nachweisbaren Effekt auf die Effektor-T-Lymphozyten-abhängige verzögerte Uberempfindlichkeit haben. Kontaktdermatitis-Werte ab 120 (≙ 20 % Steigerung gegenüber der Kontrolle) bzw. unter 80 werden als Nachweis eines stimulatorischen bzw. suppressorischen Effektes angesehen. Antikörpertiter-Differenzen von >+1 bzw. <-1 verdeutlichen den stimulatorischen bzw. suppressorischen Effekt der Substanzen auf die humorale Immunantwort. 2. Untersuchungen zur immunstimulierenden Wirkung • 2.1 Plaque-Test zum Nachweis von SE-spezifischen IgM- und IgG-PBZ Zur Prüfung immunstimulierender Effekte wurde u. a. auch der Einfluß von Verbindungen der allgemeinen Formel I auf die humorale Immunantwort an Mäusen des Inzuchtstammes CBA und mittels Hämolyse-Plaque-Test (HPT) untersucht. Diese Technik erlaubt die quantitative und getrennte Erfassung IgM- und IgG-Antikörper produzierender Zellen (= Plaque bildende Zellen; PBZ). […]

[4] = 250 µmol/l, mean of three experiments

## O=c1[nH]c2ccccc2c(=O)n1CCS [Beispiel 1, 3-(2-Mercaptoethyl)-chinazolin-2,4(1H,3H)-dion]
Adeno-Virus Typ 4
  antivirale Wirkung: nicht antiviral wirksam
Influenza A/WSN; 125 µmol/l
  Plaquereduktion in % zur Viruskontrolle auf primären HEZ: 98%
Influenza A/WSN; 250 µmol/l
  Plaquereduktion in % zur Viruskontrolle auf primären HEZ: 100%
Influenza A/WSN; 31,25 µmol/l, 31.25 µM
  Plaquereduktion in % zur Viruskontrolle auf primären HEZ: 85%
Influenza A/WSN; 62,5 µmol/l, 62.5 µM
  Plaquereduktion in % zur Viruskontrolle auf primären HEZ: 92%
[1]; 125 µmol/l, mean of three experiments
  Senkung des Virusertrages im Vergleich zur unbehandelten Kontrolle: 0,5 log10 TCID50/0,2 ml
[1]; 125 µmol/l, n.s. = nicht signifikant
  % Hemmung: n. s.
[1]; [4]
  % Hemmung: 99,9%
  Senkung des Virusertrages im Vergleich zur unbehandelten Kontrolle: 3,0 log10 TCID50/0,2 ml
[2]; 125 µmol/l, mean of two experiments
  Plaquereduktion in % zur Viruskontrolle auf primären HEZ: 15%
[2]; 250 µmol/l, footnote x = keine signifikante Wirkung
  Plaquereduktion in % zur Viruskontrolle auf primären HEZ: 45 ^x %
[2]; 62,5 µmol/l, mean of two experiments, 62.5 µM
  Plaquereduktion in % zur Viruskontrolle auf primären HEZ: 0%

## COc1cc2[nH]c(=O)n(CCCS)c(=O)c2cc1OC [Beispiel 2, 3-(3-Mercaptoprop-1-yl)-6,7-dimethoxychinazolin-2,4(1H,3H)-dion]
[3]
  Kontaktdermatitis (Kontrolle: 100) 24-Stunden-Reaktion: 180%
